Reference: US10526418B2, “Modulators of ACYL-COA lysocardiolipin acyltransferase 1 (ALCAT1) and uses thereof” (priority 2012, dated 2020)

What was measured:
[1] = test system: MFN1 and MFN2 expression in C2C12 cells; experiment: Western blot analysis of MFN1 and MFN2 expression in C2C12 cells stably expressing ALCAT1 or vector control, treated with H2O2; assay type: cell-based
Method: FIG. 7G: Western blot analysis of MFN1 and MFN2 expression in C2C12 cells stably expressing vector, ALCAT1, or ALCAT1 but were pretreated various doses (0, 1M, and 5M) of diphenyliodonium (DPI), an NADPH oxidase inhibitor, prior to treatment with 1.5 mM of H2O2.
The C2C12-A1 cells and vector control were treated with increasing doses of H2O2 as used in FIG. 7E, followed by analysis of MFN2 expression by western blot analysis.

[2] = test system: phosphorylation of Akt and Erk in H9c2 cells; experiment: Western blot analysis of phosphorylation of Akt and Erk in H9c2 cardiac cells stimulated with insulin; assay type: cell-based; details: vector control H9c2 cells, indicated doses of insulin, FIG. 17A
Method: FIGS. 17A-17B: H9c2 cardiac cells stably expressing ALCAT1 or vector control were stimulated with indicated doses of insulin (FIG. 17A) or with 100 nM of T3 for the indicated time (FIG. 17B), followed by analysis of phosphorylation of Akt, Erk, S6K1, and 4E-BP by western blot analysis using β-actin as an internal control. FIG. 17C: WT and KO mice were treated with vehicle or T4 for 28 days, followed by Western blot analysis of phosphorylation of Akt, GSK3α/β, and 4E-BP in cardiomyocytes by Western blot analysis using GAPDH as an internal control.
Oxidative Stress by ALCAT1 Regulates Akt-mTOR Signal Transduction Pathways in Cardiomyopathy: Hyperthyroidism leads to cardiomyopathy by stimulating protein synthesis in the cardiomyocytes. To identify molecular mechanisms underlying a role of ALCAT1 in hypertrophic growth, the effects of ALCAT1 overexpression and deficiency were analyzed on signal transduction pathways involved in cellular growth and proliferation, including phosphorylation of Akt, Erk, S6K, and 4E-BP1, in H9c2 cells and in mice with hyperthyroidism. Increased ROS levels lead to insulin resistance which plays a causative role in cardiac dysfunction. […] In support of the findings in H9c2 cells, short term treatment of mice with thyroid hormone stimulated cardiac Akt-mTOR phosphorylation in both ALCAT1 knockout mice and the WT mice (FIG. 20).

## OO [H2O2, Hydrogen Peroxide]
[1]; vector control C2C12 cells, increasing doses of H2O2, FIG. 7F
  MFN1 and MFN2 expression: dose-dependently depleted MFN1 and MFN2 expression

## c1ccc2c(c1)[I+]c1ccccc1-2 [DPI, diphenyleneiodonium]
[1]; C2C12-A1 cells (stably expressing ALCAT1) pre-incubated with DPI (0, 1M, and 5M) prior to 1.5 mM H2O2, FIG. 7G
  loss of MFN expression in response to H2O2: dose-dependently prevented the loss of MFN expression

## insulin: hormone used to stimulate Akt and Erk phosphorylation in H9c2 cells
[2]
  phosphorylation of Akt and Erk: dose-dependently stimulated phosphorylation of Akt and Erk
